# In patent US7118895B2, “Process for producing aglycon by using diglycosidase and flavor-improved food containing the aglycon and converting agent to be used in the process” (Amano Enzyme Inc., priority 2000, dated 2006):
# What was measured:
# [1] = tested on: Diglycosidase derived from P. multicolor; test: Reactivity toward various isoflavone glycosides (HPLC); type: biochemical, Penicillium multicolor; set-up: glucoside / aglycon: unit not given here; details: 55 °C, pH 4.0
# Method in brief: (§1)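 Aglycone liberation was measured by reversed-phase HPLC (260 nm, calibration-curve quantitation) after ethanol extraction at 0, 1, 3 and 6 h. Reactions ran at 55° C, pH 4.0 (20 mM acetate), with each glycoside (from 2 mM methanol stock) and 0.75 AU/mL enzyme solution.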
# [2] = tested on: β-Glucosidase derived from A. niger; test: as above; type: biochemical, Aspergillus niger; set-up: glucoside / aglycon: unit not given here; details: 55 °C, pH 4.0
# Method in brief: as §1
# [3] = tested on: Crude diglycosidase; test: Examination of substrate concentration in the conversion into isoflavone aglycons by diglycosidase using soybean materials; type: biochemical, Penicillium multicolor IAM7153;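 further: percent of the isoflavone family total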
# Method in brief: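 Reaction at 55° C, shaken, pH 4.0 (20 mM acetate), using crude diglycosidase from a 1.88 AU/mL enzyme solution on soy flour, soymilk, defatted soybean or soy protein concentrate at 2, 5, 10, 20 or 30% (w/v). Isoflavone aglycons quantified by HPLC of ethanol extracts at 0, 1, 3, 6 h.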
smiles,measurement,setting,value
COc1cc2c(=O)c(-c3ccc(O)cc3)coc2cc1O[C@@H]1O[C@H](CO)[C@@H](O)[C@H](O)[C@H]1O [glycitin],aglycon,[1]; Reaction time 0 h,0
same,glucoside,[1]; Reaction time 0 h,100
same,aglycon,[1]; Reaction time 1 h,97.9
same,glucoside,[1]; Reaction time 1 h,2.1
same,aglycon,[1]; Reaction time 3 h,99.8
same,glucoside,[1]; Reaction time 3 h,0.2
same,aglycon,[1]; Reaction time 6 h,99.7
same,glucoside,[1]; Reaction time 6 h,0.3
same,reactivity of β-glucosidase derived from Aspergillus niger (in words),[2],act well
same,aglycon,[2]; Reaction time 0 h,0
same,glucoside,[2]; Reaction time 0 h,100
same,aglycon,[2]; Reaction time 1 h,49.5
same,glucoside,[2]; Reaction time 1 h,50.5
same,aglycon,[2]; Reaction time 3 h,88.3
same,glucoside,[2]; Reaction time 3 h,11.7
same,aglycon,[2]; Reaction time 6 h,95.5
same,glucoside,[2]; Reaction time 6 h,4.5
same,Decomposition efficiency: ratio of each glycoside/aglycon within its isoflavone family,"[3]; concentrated soybean protein, substrate concentration 2%, heat treatment of enzyme no, reaction time 0 h",52.2%
same,Decomposition efficiency: ratio of each glycoside/aglycon within its isoflavone family,"[3]; concentrated soybean protein, substrate concentration 2%, heat treatment of enzyme no, reaction time 1 h",not detected
same,Decomposition efficiency: ratio of each glycoside/aglycon within its isoflavone family,"[3]; concentrated soybean protein, substrate concentration 2%, heat treatment of enzyme no, reaction time 3 h",not detected
same,Decomposition efficiency: ratio of each glycoside/aglycon within its isoflavone family,"[3]; concentrated soybean protein, substrate concentration 2%, heat treatment of enzyme no, reaction time 6 h",not detected
same,Decomposition efficiency: ratio of each glycoside/aglycon within its isoflavone family,"[3]; concentrated soybean protein, substrate concentration 2%, heat treatment of enzyme yes, reaction time 6 h",53.4%
same,Decomposition efficiency: ratio of each glycoside/aglycon within its isoflavone family,"[3]; concentrated soybean protein, substrate concentration 5%, heat treatment of enzyme no, reaction time 0 h",52.9%
same,Decomposition efficiency: ratio of each glycoside/aglycon within its isoflavone family,"[3]; concentrated soybean protein, substrate concentration 5%, heat treatment of enzyme no, reaction time 1 h",not detected
same,Decomposition efficiency: ratio of each glycoside/aglycon within its isoflavone family,"[3]; concentrated soybean protein, substrate concentration 5%, heat treatment of enzyme no, reaction time 3 h",not detected
same,Decomposition efficiency: ratio of each glycoside/aglycon within its isoflavone family,"[3]; concentrated soybean protein, substrate concentration 5%, heat treatment of enzyme no, reaction time 6 h",not detected
same,Decomposition efficiency: ratio of each glycoside/aglycon within its isoflavone family,"[3]; concentrated soybean protein, substrate concentration 5%, heat treatment of enzyme yes, reaction time 6 h",54.0%
same,Decomposition efficiency: ratio of each glycoside/aglycon within its isoflavone family,"[3]; concentrated soybean protein, substrate concentration 10%, heat treatment of enzyme no, reaction time 0 h",52.9%
same,Decomposition efficiency: ratio of each glycoside/aglycon within its isoflavone family,"[3]; concentrated soybean protein, substrate concentration 10%, heat treatment of enzyme no, reaction time 1 h",1.6%
same,Decomposition efficiency: ratio of each glycoside/aglycon within its isoflavone family,"[3]; concentrated soybean protein, substrate concentration 10%, heat treatment of enzyme no, reaction time 3 h",not detected
same,Decomposition efficiency: ratio of each glycoside/aglycon within its isoflavone family,"[3]; concentrated soybean protein, substrate concentration 10%, heat treatment of enzyme no, reaction time 6 h",not detected
same,Decomposition efficiency: ratio of each glycoside/aglycon within its isoflavone family,"[3]; concentrated soybean protein, substrate concentration 10%, heat treatment of enzyme yes, reaction time 6 h",53.4%
same,Decomposition efficiency: ratio of each glycoside/aglycon within its isoflavone family,"[3]; concentrated soybean protein, substrate concentration 20%, heat treatment of enzyme no, reaction time 0 h",53.1%
same,Decomposition efficiency: ratio of each glycoside/aglycon within its isoflavone family,"[3]; concentrated soybean protein, substrate concentration 20%, heat treatment of enzyme no, reaction time 1 h",13.2%
same,Decomposition efficiency: ratio of each glycoside/aglycon within its isoflavone family,"[3]; concentrated soybean protein, substrate concentration 20%, heat treatment of enzyme no, reaction time 3 h",not detected
same,Decomposition efficiency: ratio of each glycoside/aglycon within its isoflavone family,"[3]; concentrated soybean protein, substrate concentration 20%, heat treatment of enzyme no, reaction time 6 h",not detected
same,Decomposition efficiency: ratio of each glycoside/aglycon within its isoflavone family,"[3]; concentrated soybean protein, substrate concentration 20%, heat treatment of enzyme yes, reaction time 6 h",52.8%
same,Decomposition efficiency: ratio of each glycoside/aglycon within its isoflavone family,"[3]; concentrated soybean protein, substrate concentration 30%, heat treatment of enzyme no, reaction time 0 h",57.5%
same,Decomposition efficiency: ratio of each glycoside/aglycon within its isoflavone family,"[3]; concentrated soybean protein, substrate concentration 30%, heat treatment of enzyme no, reaction time 1 h",2.0%
same,Decomposition efficiency: ratio of each glycoside/aglycon within its isoflavone family,"[3]; concentrated soybean protein, substrate concentration 30%, heat treatment of enzyme no, reaction time 3 h",not detected
same,Decomposition efficiency: ratio of each glycoside/aglycon within its isoflavone family,"[3]; concentrated soybean protein, substrate concentration 30%, heat treatment of enzyme no, reaction time 6 h",not detected
same,Decomposition efficiency: ratio of each glycoside/aglycon within its isoflavone family,"[3]; concentrated soybean protein, substrate concentration 30%, heat treatment of enzyme yes, reaction time 6 h",58.0%
same,Decomposition efficiency: ratio of each glycoside/aglycon within its isoflavone family,"[3]; defatted soybean, substrate concentration 2%, heat treatment of enzyme no, reaction time 0 h",not detected
same,Decomposition efficiency: ratio of each glycoside/aglycon within its isoflavone family,"[3]; defatted soybean, substrate concentration 2%, heat treatment of enzyme no, reaction time 1 h",not detected
same,Decomposition efficiency: ratio of each glycoside/aglycon within its isoflavone family,"[3]; defatted soybean, substrate concentration 2%, heat treatment of enzyme no, reaction time 3 h",not detected
same,Decomposition efficiency: ratio of each glycoside/aglycon within its isoflavone family,"[3]; defatted soybean, substrate concentration 2%, heat treatment of enzyme no, reaction time 6 h",not detected
same,Decomposition efficiency: ratio of each glycoside/aglycon within its isoflavone family,"[3]; defatted soybean, substrate concentration 2%, heat treatment of enzyme yes, reaction time 6 h",not detected
same,Decomposition efficiency: ratio of each glycoside/aglycon within its isoflavone family,"[3]; defatted soybean, substrate concentration 5%, heat treatment of enzyme no, reaction time 0 h",not detected
same,Decomposition efficiency: ratio of each glycoside/aglycon within its isoflavone family,"[3]; defatted soybean, substrate concentration 5%, heat treatment of enzyme no, reaction time 1 h",not detected
same,Decomposition efficiency: ratio of each glycoside/aglycon within its isoflavone family,"[3]; defatted soybean, substrate concentration 5%, heat treatment of enzyme no, reaction time 3 h",not detected
same,Decomposition efficiency: ratio of each glycoside/aglycon within its isoflavone family,"[3]; defatted soybean, substrate concentration 5%, heat treatment of enzyme no, reaction time 6 h",not detected
same,Decomposition efficiency: ratio of each glycoside/aglycon within its isoflavone family,"[3]; defatted soybean, substrate concentration 5%, heat treatment of enzyme yes, reaction time 6 h",not detected
same,Decomposition efficiency: ratio of each glycoside/aglycon within its isoflavone family,"[3]; defatted soybean, substrate concentration 10%, heat treatment of enzyme no, reaction time 0 h",not detected
